Laboratory results as given in patent publication US4000985A, “Azo dyes having a high solubility in petroleum fuels” (Morton-Norwich Products, Inc., priority 1975, dated 1977).

Key:
Format in all cases: physicochemical
[1] = Dissolution of 58% dye in 42% fuel by warming, cooling to 25° C. (six heating/diesel oils); details: 58% by weight dye, warmed, cooled to 25° C.
Experimental: No. 2 Regular Grade Diesel Oil
Each dye-fuel oil mixture was warmed with stirring and then cooled to 25° C.

[2] = Storage solubility in No. 1 and No. 2 Heating Oil at ambient temperature and -10° C.
Experimental: The resultant mixtures were stored at ambient temperatures (20° to 25° C.) and at -10° C. Where any separation of dye occurred, the dye content of the remaining solution was determined colorimetrically.

[3] = Rate and extent of dissolution in No. 1 and No. 2 Heating Oils at 25° C. (colorimetric); details: for solubility in fuel oils (in words): No. 1 and No. 2 fuel oils; for dissolution in the heating oils: two minutes contact
Experimental: The solubility properties of each of the dyes of Examples 16-41 were evaluated in the fuels No. 1 and No. 2 Heating Oils, respectively. The procedure was as follows:
Where the dyes are solid dyes, excess of pulverized solid dye, far beyond that which would dissolve, i.e., 30 to 35% dye, was added to the respective oils at 25° C. and agitated at constant speed. Samples were removed at 1, 10 and 20 minute intervals, filtered, and the amount of dissolved dye determined colorimetrically.
The tarry non-solid dyes were charged in proportions of 50-60% dye to 50-40% oil rather than 30-35% used for the solid dyes. In fact, it was very difficult to stir the tarry dye-fuel oil mixture at a dye concentration of 50%. Samples for these dyes were taken after 2 minutes. The longer initial time for the tarry dyes was to permit reasonable contact between solvent and the viscous, condensed dye.

[4] = Physical state of the isolated dye; details: for Physical State of Dye: after isolation according to Procedure B
Text: alternatively, the crude liquid dye may be taken up with a volatile solvent and the solvent removed during the drying process to yield a non-volatile liquid colorant.

[5] = Storage solubility in xylene at 20°-25° C. and -10° C.
Experimental: The solutions obtained were stored at 20°-25°C. and at -10° C. Where any separation of dye occurred, the dye content of the remaining solution was determined colorimetrically.

[6] = General statements on solubility and dissolution rate in petroleum fuels
[7] = Dissolution of 58% dye in 42% fuel by warming, cooling to 25° C. (six heating/diesel oils)
[8] = Equilibrium solubility of Solvent Red No. 19 in petroleum fuels (filtrate, colorimetric)
Experimental: Solvent Red No. 19 was subjected to the same solubility test as set forth in Example 14.
In each instance, the precipitated mass was filtered and the dye content of the filtrate was determined colorimetrically.

[9] = No. 1 Heating Oil, 20° C.-25° C. (Table 8)
[10] = No. 2 Heating Oil, 20° C.-25° C. (Table 9)
[11] = No. 1 Fuel Oil, 20 Minutes, 25° C., aminoazotoluene dyes (Table 6)
[12] = No. 2 Fuel Oil, 20 Minutes, 25° C., aminoazotoluene dyes (Table 7)
[13] = No. 1 Fuel Oil, 20 Minutes, 25° C., aminoazobenzene dyes (Table 4)
[14] = No. 2 Fuel Oil, 20 Minutes, 25° C., aminoazobenzene dyes (Table 5)
[15] = No. 1 Heating Oil, 20° C.-25° C. (Table 10)
[16] = No. 2 Heating Oil, 20° C.-25° C. (Table 11)
[17] = No. 1 Heating Oil, -10° C. (Table 10)
[18] = No. 2 Heating Oil, -10° C. (Table 11)

Row | SMILES | Solubility (% by Wt.) [2, 9] | Solubility (% by Wt.) [2, 10] | Physical State of Dye at 20° C. [4] | Solubility (% by Wt.) ([5]; 20° C.-25° C. (Table 12)) | Solubility (% by Wt.) ([5]; -10° C. (Table 12)) | equilibrium solubilities [7] | Solubility (% by Wt.) [2, 15] | Solubility (% by Wt.) [2, 16] | Solubility (% by Wt.) [2, 17] | Solubility (% by Wt.) [2, 18] | behavior of dye-fuel oil mixture on cooling/storage [1] | other results
1 | CCCCC(CC)CNc1ccc2ccccc2c1N=Nc1ccc(N=Nc2ccccc2)cc1 (stereo not drawn) [Example 2] | 4.4 % by Wt. | 5.1 % by Wt. | Solid | 25.5 % by Wt. | 10.35 % by Wt. |  |  |  |  |  | precipitated as a solid mass almost immediately upon cooling to 25 °C | Percent Dissolved ([3]; No. 1 Fuel Oil, 1 Minute, 25° C., aminoazobenzene dyes (Table 4)): 3.43%; Percent Dissolved ([3]; No. 1 Fuel Oil, 10 Minutes, 25° C., aminoazobenzene dyes (Table 4)): 3.87%; Percent Dissolved [3, 13]: 4.47%; Percent Dissolved ([3]; No. 2 Fuel Oil, 1 Minute, 25° C., aminoazobenzene dyes (Table 5)): 4.63%; Percent Dissolved ([3]; No. 2 Fuel Oil, 10 Minutes, 25° C., aminoazobenzene dyes (Table 5)): 4.90%; Percent Dissolved [3, 14]: 5.13%; crystallization from oily solvents ([6]; aromatic solvents, diesel and heating oils): crystallizes from oily solvents, including aromatic solvents, and diesel and heating oils; Physical State of Dye [4]: Solid
2 | CCCCC(CC)COCCCNc1ccc2ccccc2c1N=Nc1ccc(N=Nc2ccccc2)cc1 (stereo not drawn) [Example 8] |  |  | Liquid | Complete | Complete |  | Complete | Complete | Complete | Complete | completely soluble and remained soluble at temperatures ranging from -10 °C to 25 °C | Percent Dissolved [3, 13]: 52.3%; Percent Dissolved ([3]; No. 1 Fuel Oil, 2 min., aminoazobenzene dyes (Table 4)): 52.3%; solubility in fuel oils (in words) [3]: exceptionally high solubility; Percent Dissolved [3, 14]: 52.3%; Percent Dissolved ([3]; No. 2 Fuel Oil, 2 min., aminoazobenzene dyes (Table 5)): 52.3%; dissolution in the heating oils [3]: dissolved completely after two minutes contact; Physical State of Dye ([4]; listed as 27): liquid
3 | CCCCC(CC)COCCCNc1ccc2ccccc2c1N=Nc1ccc(N=Nc2ccccc2)cc1C (stereo not drawn) [Example 9] |  |  | Tar | Complete | 38.1 % by Wt. | exceeded 25 percent by weight | 26.6 % by Wt. | 28.8 % by Wt. | 9.5 % by Wt. | 9.5 % by Wt. | displayed some separation of dye upon lengthy storage | 
4 | CCCCC(CC)COCCCNc1ccc2ccccc2c1N=Nc1cc(C)c(N=Nc2ccccc2C)cc1C (stereo not drawn) [Example 10] |  |  | Tar | 36.3 % by Wt. | 20.8 % by Wt. | exceeded 25 percent by weight | 29.5 % by Wt. | 29.7 % by Wt. | 19.8 % by Wt. | 12.1 % by Wt. | displayed some separation of dye upon lengthy storage | 
5 | CCNc1ccc2ccccc2c1N=Nc1ccc(N=Nc2ccccc2)cc1 [Solvent Red No. 19] |  |  |  |  |  |  |  |  |  |  | precipitation occurred immediately | % by Weight Soluble (At Equilibrium) ([8]; No. 1 Heating Oil): 2.23 % by Weight; % by Weight Soluble (At Equilibrium) ([8]; No. 1 Premium Diesel): 1.89 % by Weight; % by Weight Soluble (At Equilibrium) ([8]; No. 2 Heating Oil): 3.41 % by Weight; % by Weight Soluble (At Equilibrium) ([8]; No. 2 Premium Diesel): 2.30 % by Weight; % by Weight Soluble (At Equilibrium) ([8]; No. 2 Regular Diesel): 2.63 % by Weight; % by Weight Soluble (At Equilibrium) ([8]; No. 4 Heating Oil): 5.76 % by Weight

Now from value to compound, other results behind:

Row | Solubility (% by Wt.) [2, 9] | Solubility (% by Wt.) [2, 10] | Physical State of Dye at 20° C. [4] | Solubility (% by Wt.) ([5]; 20° C.-25° C. (Table 12)) | Solubility (% by Wt.) ([5]; -10° C. (Table 12)) | equilibrium solubilities [7] | Solubility (% by Wt.) [2, 15] | Solubility (% by Wt.) [2, 16] | Solubility (% by Wt.) [2, 17] | Solubility (% by Wt.) [2, 18] | SMILES | behavior of dye-fuel oil mixture on cooling/storage [1] | other results
6 | Complete | Complete | Liquid | Complete | Complete |  |  |  |  |  | CCCCC(CC)CNc1ccc2ccccc2c1N=Nc1ccc(N=Nc2ccccc2C)cc1C (stereo not drawn) [Example 1] | completely soluble and remained soluble at temperatures ranging from -10 °C to 25 °C | Solubility (% by Wt.) ([2]; No. 1 Heating Oil, -10° C. (Table 8)): Complete; Solubility (% by Wt.) ([2]; No. 2 Heating Oil, -10° C. (Table 9)): Complete; Percent Dissolved [3, 11]: 58.0%; Percent Dissolved ([3]; No. 1 Fuel Oil, 2 min, aminoazotoluene dyes (Table 6)): 58.0%; solubility in fuel oils (in words) [3]: exceptionally high solubility; Percent Dissolved [3, 12]: 55.3%; Percent Dissolved ([3]; No. 2 Fuel Oil, 2 min, aminoazotoluene dyes (Table 7)): 55.3%; dissolution in the heating oils [3]: dissolved completely after two minutes contact; Physical State of Dye ([4]; listed as 38): liquid dye
7 | 44.8 % by Wt. | 44.1 % by Wt. | Liquid | 50.0 % by Wt. | 25.0 % by Wt. | exceeded 25 percent by weight |  |  |  |  | CCCCC(CC)CNc1ccc2ccccc2c1N=Nc1cc(C)c(N=Nc2ccccc2C)cc1C (stereo not drawn) [Example 4] | displayed some separation of dye upon lengthy storage | 
8 |  |  | Solid | Complete | 20.8 % by Wt. |  | 8.3 % by Wt. | 7.7 % by Wt. |  |  | CCCCC(CC)COCCCNc1ccc2ccccc2c1N=Nc1ccc(N=Nc2ccccc2C)cc1C (stereo not drawn) [Example 7] | precipitated as a solid mass almost immediately upon cooling to 25 °C | Percent Dissolved ([3]; No. 1 Fuel Oil, 1 Minute, 25° C., aminoazotoluene dyes (Table 6)): 6.44%; Percent Dissolved ([3]; No. 1 Fuel Oil, 10 Minutes, 25° C., aminoazotoluene dyes (Table 6)): 7.41%; Percent Dissolved [3, 11]: 8.35%; Percent Dissolved ([3]; No. 2 Fuel Oil, 1 Minute, 25° C., aminoazotoluene dyes (Table 7)): 6.12%; Percent Dissolved ([3]; No. 2 Fuel Oil, 10 Minutes, 25° C., aminoazotoluene dyes (Table 7)): 6.85%; Percent Dissolved [3, 12]: 7.71%; solubility in petroleum fuels (in words) [6]: relatively low solubility in petroleum fuels; Physical State of Dye [4]: Solid
